Target: T1, XfOhr (Ohr from Xylella fastidiosa) (Xylella fastidiosa, UniProt Q9PCF4)
T1 construct: gene XF_1827
T1 sequence (Q9PCF4 1-143): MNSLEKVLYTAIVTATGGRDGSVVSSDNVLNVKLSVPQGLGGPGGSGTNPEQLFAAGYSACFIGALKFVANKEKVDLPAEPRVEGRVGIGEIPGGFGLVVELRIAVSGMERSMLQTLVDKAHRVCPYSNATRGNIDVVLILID

NC(=O)CCCC[C@@H](S)CCS [dihydrolipoamide]
lipoamide-lipoamide dehydrogenase peroxidase-coupled assay, NADH decay at 340 nm: XfOhr R19A and XfOhr E51A presented only residual dihydrolipoamide-dependent peroxidase activity
